Measured values: patent US12370193B2, “Method of inhibiting TREM-1” (UNIVERSITY OF FLORIDA RESEARCH FOUNDATION, INCORPORATED, priority 2019, dated 2025)

Assays:
[1] = test system: collagen-induced arthritis; settings: Chang et al. (2014); cited from earlier work
TH17 cells = settings: Chang et al. study; cited from earlier work
[2] = test system: collagen-induced arthritis; test: Collagen-induced arthritis (CIA) mouse model; settings: for enlargement of the liver: CIA mice, 20 mg/kg
Procedure: Clinical score was monitored every day after boosting during 18 days. […] The dosage of all compounds was identical in each group.
Briefly, DBA/1J mice were injected with chicken type II collagen on day 1 and then each animal received a boost injection of collagen on Day 21. Compound treatment, initiated on day 3-post boost injection, was administered intraperitoneally at 20 mg/kg twice-a-day for a total of 16 days. […] Mice: All mice were maintained in a specific pathogen-free environment in accordance with institutional protocol. […] Female DBA/1J mice were purchased from Taconic. CIA was induced in 8 weeks as previously described^40.

TREM-1 [3] = test: TREM-1 gene expression in LPS-stimulated RAW264.7 cells (RNA sequencing, qPCR); format: cell-based, mouse; settings: 26 hr exposure
Procedure: (§1) FIG. 2B are graphs showing TREM-1 gene expression by q-PCR. […] All experiments were performed with 3 biological replicates and the median value of TREM-1 fluorescence was represented by the graph on the bottom.
Quantitative RT-PCR: Total RNA was extracted from EL4 or RAW264.7 cells using RNeasy Plus Micro Kit (Qiagen) and the RNA was reverse transcribed using the ABI reverse transcription kit (Applied Biosystems/Thermo Fisher Scientific, Waltham MA). Quantitative PCR was performed with a 7900HT Fast Real Time PCR System (Applied Biosystems) using SYBR green (Roche).
mRNA sequencing analysis: RAW264.7 cells RNA extraction protocol for RNA seq was derived from Qiagen Kit-74106. Total RNA was quantified using the Qubit 2.0 Fluorometer (Invitrogen, Carlsbad, CA) and run on the Agilent 2100 Bioanalyzer (Agilent Technologies, Santa Clara, CA) for quality assessment. RNA samples of good quality with RNA Integrity Number (RIN)>8.0 were further processed. A RNase-free working environment was maintained and RNase-free tips, Eppendorf tubes and plates were utilized for the subsequent steps. Messenger RNA was selectively isolated from total RNA (300 ng input) using poly-T oligos attached to magnetic beads and converted to sequence-ready libraries using the TruSeq stranded mRNA sample prep protocol (Cat. #: RS-122-2101, Illumina, San Diego, CA). The final libraries were validated on the bioanalyzer DNA chips and qPCR quantified using primers that recognize the illumina adaptors. The libraries were then pooled at equimolar ratios, quantified using qPCR and loaded onto the NextSeq 500 flow cell at 1.8 pM final concentration. They were sequenced using the high-output, paired-end, 75-bp chemistry. Demultiplexed and quality filtered raw reads (fastq) generated from the NextSeq 500 were trimmed (adaptor sequences) using Flexbar 2.4 and aligned to the mouse reference database (mm9) using TopHat version 2.0.9 (Trapnell et al., 2009). HTseq-count version 0.6.1 was used to generate gene counts and differential gene expression analysis was performed using Deseq2 (Anders and Huber, 2010).

TREM-1 [4] = test: TREM-1 surface expression by FACS in LPS-stimulated RAW264.7 cells; format: cell-based, mouse; settings: 50 hr incubation
Procedure: as §1
Flow cytometry and antibodies: For the analysis of macrophage activation, RAW264.7 cells (American Type Culture Collection) were pre-incubated with 5 μM 1903 for 18 h then stimulated with 1 μg/mL LPS (Escherichia coli 0127:B8, Sigma-Aldrich (St. Louis, MO)) for 6 h. RAW264.7 cells were stained with APC conjugated anti-TREM-1 antibody (eBioscience). Cell sorting was performed using LSRII (BD Bioscience).

RORγ = molecular target: T1, RORγ (Homo sapiens, UniProt P51449); test: Gal4-RORγ co-transfection promoter-reporter assay; settings: cell-based promoter-reporter Gal4 assay format, HEK293T cells
T1 sequence (P51449 269-518 limits assumed): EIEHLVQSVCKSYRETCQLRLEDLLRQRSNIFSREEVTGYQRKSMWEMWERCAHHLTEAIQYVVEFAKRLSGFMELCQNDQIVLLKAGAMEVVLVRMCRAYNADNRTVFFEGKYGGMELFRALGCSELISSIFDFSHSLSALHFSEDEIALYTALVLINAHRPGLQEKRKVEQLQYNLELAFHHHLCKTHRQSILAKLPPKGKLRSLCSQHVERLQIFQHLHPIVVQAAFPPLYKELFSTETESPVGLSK

RORα = test: Gal4-RORα co-transfection promoter-reporter assay; format: cell-based; settings: Gal4 assay format
Procedure: (§2) Reporter gene assays: Twenty-four hours before transfection, HEK293T cells were plated in 96-well plates at a density of 15×10^3 cells per well. UAS:luciferase reporter and Ga14-RORa, Gal4-RORb, Gal4-RORγ, Gal4-LXRα, or Gal4 PPARγ DNA co-transfections were performed using X-tremeGENE 9 (Roche). Twenty-four hours after transfection, the cells were treated with vehicle or compound. Twenty-four hours after treatment, the luciferase activity was measured using the Dual-Glo luciferase assay system (Promega). Results were analyzed using GraphPad Prism software.

RORβ = test: Gal4-RORβ co-transfection promoter-reporter assay; format: cell-based; settings: Gal4 assay format
Procedure: as §2

LXRα = molecular target: T2, LXRα (Homo sapiens, UniProt Q13133); test: Gal4-LXRα co-transfection promoter-reporter assay; format: cell-based; settings: HEK293T cells, read-out: LXR agonist activity EC50
T2 sequence (Q13133 209-447 limits assumed): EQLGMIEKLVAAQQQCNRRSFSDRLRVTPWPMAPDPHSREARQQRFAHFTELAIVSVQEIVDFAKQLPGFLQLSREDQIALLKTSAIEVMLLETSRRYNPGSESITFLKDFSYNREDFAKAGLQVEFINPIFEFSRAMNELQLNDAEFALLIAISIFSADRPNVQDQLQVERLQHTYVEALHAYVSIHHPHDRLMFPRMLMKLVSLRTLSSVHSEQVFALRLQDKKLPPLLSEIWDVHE
Source text: FIGS. 1A to 1E: Pan modulator with poly-pharmacology. […] FIG. 1D is a graph showing PPARγ target genes (aP2 and CD36) expression in OP9 cells with and without MDI (IBMX, dexamethasone, insulin) treatment. […] SR1903 is represented as orange sticks while PPARγ, RORγ, and LXRβ are depicted as blue ribbons respectively. Specific residues driving the interaction labelled and shown as sticks as well. […] FIG. 1F are graphs showing RORγ target genes (IL17A and IL17F) expression in EL4 cells.
as §2

EL4 cells = test: RORγ target gene expression in PMA/ionomycin stimulated EL4 cells; format: cell-based; settings: PMA and ionomycin, compound at 10 μM
Source text: FIG. 1D is a graph showing PPARγ target genes (aP2 and CD36) expression in OP9 cells with and without MDI (IBMX, dexamethasone, insulin) treatment. […] Specific residues driving the interaction labelled and shown as sticks as well. […] Quantitative RT-PCR: Total RNA was extracted from EL4 or RAW264.7 cells using RNeasy Plus Micro Kit (Qiagen) and the RNA was reverse transcribed using the ABI reverse transcription kit (Applied Biosystems/Thermo Fisher Scientific, Waltham MA). Quantitative PCR was performed with a 7900HT Fast Real Time PCR System (Applied Biosystems) using SYBR green (Roche).

| SMILES | therapeutic effect in CIA mice [1] | IL-17 and IL-23R expression (TH17 cells) | TH17 cell differentiation (TH17 cells) | enlargement of the liver [2] | LPS induction of TREM-1 gene expression (qPCR) (TREM-1 [3]) | LPS-induced TREM1 cell surface expression (TREM-1 [4]) | arthritis clinical score ([2]; Day 34, 20 mg/kg i.p. twice-a-day, vehicle 13.6±2.9) | IC50 (RORγ) [µM] | activity on RORα (RORα) | activity on RORβ (RORβ) | EC50 (LXRα) [µM] | IL17F expression (EL4 cells) |
| --- | --- | --- | --- | --- | --- | --- | --- | --- | --- | --- | --- | --- |
| OC(c1ccc(-c2ccc(CN3CCN(Cc4ccncc4)CC3)cc2)c(F)c1)(C(F)(F)F)C(F)(F)F [SR2211] | robust therapeutic effect | reduced | inhibited | – | – | – | – | – | – | – | – | – |
| O=S(=O)(c1ccccc1)N(CC(F)(F)F)c1ccc(C(O)(C(F)(F)F)C(F)(F)F)cc1 [T0901317, N-(2,2,2-trifluoroethyl)-N-[4-[2,2,2-trifluoro-1-hydroxy-1-(trifluoromethyl)ethyl]phenyl]-benzenesulfonamide, reference compound] | – | – | – | negative effect on liver | – | – | – | – | – | – | – | – |
| O=C(O)Cc1cccc(OCCCN(Cc2cccc(C(F)(F)F)c2Cl)CC(c2ccccc2)c2ccccc2)c1 [GW3965, reference compound] | – | – | – | did not cause enlargement of the liver | significantly repressed | only modestly dampened | only very modest effects | 43 | lack activity | lack activity | 0.154 | lacked the ability to repress |
